Measurements as given in patent US20200345725A1, “Methods and Compositions for Treating Cancer” (Omeros Corporation, priority 2019, published 2020).

How the values were obtained:
Assay type in all cases: cell-based
WT GPR174 = target: T1, WT GPR174 (Homo sapiens, UniProt Q9BXC1); test: Inhibition of PS-induced GPR174 Gs signaling (GloSensor), HEK293 stably transfected with WT GPR174
T1 construct: expressed in transfected cells; host or cells: HEK293
Procedure: The signaling experiment was conducted as described for FIG. 45, but instead of transient transfection a pool of HEK293 cells stably transfected with either WT GPR174 (for compound 10, as shown in FIG. 47A) or GPR174-v38 for the rest of the tested compounds, as shown in FIGS. 47B-47F)) and GloSensor cAMP biosensor was used. A dilution series of each of the GPR174 inhibitory compounds 10 (Group I), 6 (Group I), 11 (Group I), 20 (Group II), 23 (Group IV), and 30 (Group IV) were prepared in DMSO. After the plates were pre-read in a luminometer, 1 μL of the compound dilution was added per well (with control wells receiving 1 μL of DMSO) followed by addition of PS liposomes to the final concentration of 1 μM. Plates were read in a luminometer after 15 minutes of incubation. The ratio of luminescence after PS addition to the pre-read luminescence value was used as a measure of receptor-mediated signaling.

mouse splenocytes = test: IL-2 in stimulated splenocyte cultures from WT or GPR174 KO mice; conditions: 48 hours; 10 μM; vs vehicle
Procedure: GPR174 knockout (KO) mice (referred to also as “FKSG79”) were generated as described in Gragerov A. et al., PNAS vol 104(36): 14406-14411, 2007. Splenocyte cultures were generated from four GPR174 KO mice and four wild-type (WT) mice. Single-cell suspension of individual mouse spleens were pelleted by centrifugation, resuspended in RBC lysis buffer to remove erythrocytes, spun down again and resuspended in T cell medium (RPMI-1640, 10% FBS, 6 mM L-Glutamine, 12.5 mM HEPES, 50 μM 2-mercaptoethanol, Pen/Strep). Thus, prepared splenocytes were plated into 96-well plates at a density of 3×10^6 cells/mL, 250 μL/well and stimulated with 100 ng/mL of anti-CD3 antibodies and 100 ng/mL of anti-CD28. Cells were treated with either vehicle (0.1% DMSO) or GPR174 inhibitory Compound 10 (10 μM). 48 hours later, cell supernatants were analyzed for cytokine levels using LEGENDplex mouse Th1 cytokine detection kit (BioLegend). Four GPR174 KO and four WT spleens were analyzed, each in triplicate.

[1] = test system: co-cultured mouse C57BL/6+DBA1 splenocytes; test: Cytokines in C57BL/6 + DBA1 splenocyte co-culture; conditions: 30 μM; day 6 after mixing
Procedure: In order to stimulate T cells in mice, splenocytes obtained from two different mouse strains, C57BL/6 and DBA1, were mixed in culture.
The effect of compound 10 on production of cytokines (IFN-γ, IL-5, TNF-α, IL-2, IL-6, IL-4, IL-10, IL-9, IL17A, IL17F, IL-21, IL-22 and IL-13) in mouse splenocyte co-cultures was determined as follows. Splenocytes obtained from two different mouse strains, C57BL/6 and DBA1, were mixed in culture in the presence or absence of 30 μM compound 10. Cytokine production of IFN-γ, IL-5, TNF-α, IL-2, IL-6, IL-4, IL-10, IL-9, IL-17A, IL-17F, IL-21, IL-22 and IL-13 was measured in the co-culture supernatant at day 4 and day 6 after mixing. Cytokine levels were determined by LEGENDplex™ bead-based immunoassays from BioLegend (San Diego, Calif.) according to the manufacturer's instructions.

human PBMC = test: IL-2 in supernatants of human PBMC stimulated with anti-CD3 and anti-CD28, ELISA; conditions: human PBMC donor 8, 24 hours post-stimulation; compound 10 1 μM, ZM-241385 0.1 μM, APCP 10 μM; FIG. 71
Procedure: Human PBMCs, obtained from a human volunteer donor (donor 8), were dispensed in X-vivo15 media (Lonza) supplemented with Glutamax, penicillin and streptomycin, at density of 1×10^6 cells/well in a 96-well flat-bottom plate and were cultured in quadruplicate for 3 hours in the presence of:
GPR174 inhibitory compound 10 (1 μM);
CD73 inhibitory compound, adenosine 5′-(a,p-methylene)diphosphate sodium salt (APCP, Tocris, 10 μM);
Combinations of the above agents;
After which 1 μg/mL anti-CD3 antibody (UCHT1) and 0.1 μg/mL anti-CD28 antibody (CD28.2) were added to activate T cells. Supernatants from these cells were collected at 24 hours post-stimulation and the levels of IL-2 were determined by ELISA.

T1 sequence (Q9BXC1 whole entry): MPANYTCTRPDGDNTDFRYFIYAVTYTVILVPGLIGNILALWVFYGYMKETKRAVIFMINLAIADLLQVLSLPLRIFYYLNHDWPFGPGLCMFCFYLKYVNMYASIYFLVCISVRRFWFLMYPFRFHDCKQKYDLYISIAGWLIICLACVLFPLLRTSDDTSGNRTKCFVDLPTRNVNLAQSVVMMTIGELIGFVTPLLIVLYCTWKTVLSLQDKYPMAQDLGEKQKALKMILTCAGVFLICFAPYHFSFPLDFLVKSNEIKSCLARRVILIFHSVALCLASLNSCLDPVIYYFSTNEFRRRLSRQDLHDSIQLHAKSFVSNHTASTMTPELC

CC1CCN(c2cc(N3CCN(S(=O)(=O)c4ccccc4)CC3)c([N+](=O)[O-])cc2F)CC1 [compound 10]
PS-mediated GPR174 Gs signaling (FIG. 47A) (WT GPR174; PS liposomes 1 μM): inhibited | IC50 (WT GPR174; PS liposomes 1 μM, WT GPR174, read-out: apparent IC50, inhibition of PS-induced GPR174 Gs signaling): 20 to 40 nM | inhibition of the PS signaling through the GPR174 receptor (WT GPR174; at concentrations of 1-2 μM): almost complete inhibition | IL-2 in culture supernatants, GPR174 KO splenocytes (mouse splenocytes): no significant difference | IL-2 in culture supernatants, WT splenocytes (mouse splenocytes): increased | quantities of cytokines produced during splenocyte allogeneic stimulation [1]: strong alteration | increase of IL-2 levels (human PBMC): 1.4 fold
